Measured values taken from patent US20080299108A1, “Peptides for Diagnostic and Therapeutic Methods for Celiac Sprue” (priority 2005, published 2008).

Assays:
[1] = molecular target: T1, tissue transglutaminase (tTGase) (Homo sapiens, UniProt P21980); settings: cited from earlier work
T1 sequence (P21980 1-687): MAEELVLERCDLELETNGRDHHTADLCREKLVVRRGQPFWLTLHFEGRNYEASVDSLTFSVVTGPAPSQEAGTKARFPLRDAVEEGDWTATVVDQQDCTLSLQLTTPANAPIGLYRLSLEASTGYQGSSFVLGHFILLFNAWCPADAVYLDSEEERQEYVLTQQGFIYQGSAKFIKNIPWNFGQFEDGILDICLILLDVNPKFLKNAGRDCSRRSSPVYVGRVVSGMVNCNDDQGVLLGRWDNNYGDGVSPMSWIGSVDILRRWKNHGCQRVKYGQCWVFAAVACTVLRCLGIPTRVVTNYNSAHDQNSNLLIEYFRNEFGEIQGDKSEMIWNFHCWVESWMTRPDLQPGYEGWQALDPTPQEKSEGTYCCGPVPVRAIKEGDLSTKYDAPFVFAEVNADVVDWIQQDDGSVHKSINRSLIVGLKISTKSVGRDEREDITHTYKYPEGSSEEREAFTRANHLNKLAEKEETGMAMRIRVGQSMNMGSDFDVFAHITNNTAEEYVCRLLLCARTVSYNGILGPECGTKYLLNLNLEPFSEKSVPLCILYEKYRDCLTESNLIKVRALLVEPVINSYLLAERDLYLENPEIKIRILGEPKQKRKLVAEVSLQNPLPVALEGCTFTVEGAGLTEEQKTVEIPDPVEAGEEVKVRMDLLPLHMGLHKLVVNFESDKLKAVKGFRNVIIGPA

[2] = tested on: pancreatic proteases (elastase, trypsin, chymotrypsin); assay type: in vitro ADME
Excerpt: Because BBM exopeptidases are restricted to N- or C-terminal processing, it was investigated if generation of additional free peptide ends by pancreatic enzymes would accelerate digestion.

PQPQLPYPQPQLPY
specificity of tTGase relative to its target peptide sequence in fibrinogen [1]: 5 fold
proteolysis with trypsin or chymotrypsin [2]: No proteolysis was detected
hydrolysis by elastase ([2]; elastase at a high (non-physiological) concentration of 100 ng/μl): capable of hydrolyzing
